Numbers after ± are expanded uncertainties.
Conditions: Liquid, Vibrating tube method

CCCCCCCCCCCC(=O)OC [methyl dodecanoate]
mass density [kg/m3]
Conditions	283.15 K	293.15 K	303.15 K	313.15 K	323.15 K	333.15 K	343.15 K	353.15 K	363.15 K
100 kPa	876.58 ± 0.9	869.3 ± 0.9	860.98 ± 0.89	853.31 ± 0.88	845.42 ± 0.87	837.89 ± 0.87	829.64 ± 0.86	821.96 ± 0.85	813.95 ± 0.84
1000 kPa	877.29 ± 0.9	869.79 ± 0.9	861.67 ± 0.89	853.78 ± 0.88	846.17 ± 0.87	838.44 ± 0.87	830.6 ± 0.86	822.7 ± 0.85	814.97 ± 0.85
3000 kPa	879.12 ± 0.91	871.19 ± 0.9	863.19 ± 0.89	855.32 ± 0.89	847.65 ± 0.88	840.13 ± 0.87	832.28 ± 0.86	824.65 ± 0.86	816.88 ± 0.85
5000 kPa	880.29 ± 0.91	872.09 ± 0.9	864.57 ± 0.9	856.78 ± 0.89	849.19 ± 0.88	841.69 ± 0.88	834.04 ± 0.87	826.36 ± 0.86	818.64 ± 0.86
10000 kPa	883.41 ± 0.92	875.46 ± 0.91	867.78 ± 0.91	860.3 ± 0.9	852.91 ± 0.89	845.49 ± 0.89	837.93 ± 0.88	830.59 ± 0.88	822.93 ± 0.87
15000 kPa	886.29 ± 0.93	878.42 ± 0.92	871.1 ± 0.92	863.63 ± 0.91	856.38 ± 0.9	849.14 ± 0.9	841.71 ± 0.89	834.55 ± 0.89	827.44 ± 0.88
20000 kPa	889.1 ± 0.94	881.47 ± 0.93	874.06 ± 0.92	866.74 ± 0.92	859.88 ± 0.91	852.7 ± 0.91	845.7 ± 0.91	838.32 ± 0.9	831.22 ± 0.9
25000 kPa	891.75 ± 0.94	884.32 ± 0.94	876.92 ± 0.93	870.04 ± 0.93	863.01 ± 0.93	856.12 ± 0.92	848.98 ± 0.92	842.04 ± 0.91	834.95 ± 0.91
30000 kPa	894.31 ± 0.95	887.1 ± 0.95	879.85 ± 0.94	872.94 ± 0.94	866.2 ± 0.94	859.27 ± 0.93	852.48 ± 0.93	845.62 ± 0.93	838.64 ± 0.92
35000 kPa	896.95 ± 0.96	889.69 ± 0.96	882.66 ± 0.95	875.68 ± 0.95	869.19 ± 0.95	862.4 ± 0.94	855.72 ± 0.94	849.06 ± 0.94	842.26 ± 0.94
40000 kPa	899.33 ± 0.97	892.27 ± 0.96	885.34 ± 0.96	878.33 ± 0.96	872.15 ± 0.96	865.66 ± 0.95	858.94 ± 0.95	853.14 ± 0.95	845.87 ± 0.95
50000 kPa	904.05 ± 0.98	897.52 ± 0.98	890.6 ± 0.98	883.95 ± 0.98	877.67 ± 0.98	871.36 ± 0.98	864.79 ± 0.98	858.49 ± 0.98	852.24 ± 0.98
60000 kPa	909.85 ± 0.99	901.95 ± 0.99	895.49 ± 0.99	888.91 ± 0.99	883.06 ± 1	876.77 ± 1	870.31 ± 1	864.35 ± 1	858.43 ± 1

From the NIST ThermoML archive (doi:10.1016/j.jct.2016.08.027)
